# Data published in US7629354B2, “Use of phanquinone for the treatment of Alzheimer's disease” (Prana Biotechnology Limited, priority 1997, dated 2009).
# What was measured:
# [1] = in vivo; cited from earlier work
# PC12 cells = assay: MTT reduction (cell redox activity) in PC12 cells exposed to Aβ(25-35); type: cell-based, Rat
# Experimental: Aβ(25-35) was delivered by Bachem (CH) or Sigma (USA) and dissolved in phosphate buffered saline (PBS) at pH 7.4, 2 hours prior to application.
# Rat PC12 pheochromocytoma cells were grown in Dulbecco's modified Eagle's medium (DMEM) containing 1% penicillin-streptomycin, 5% fetal calf serum and 10% horse serum in humidified incubator with 5% CO2.
# PC12 cells were plated on 96-wells microtiter plates in 100 μl of the appropriate medium. After 24 hours the indicated concentrations of Aβ(25-35) peptide was added alone or together with phanquinone in the designated concentrations. Incubation continued for 24 hours. Following incubation, MTT reduction was measured using a commercially available assay according to the manufacturer's (Boehringer Mannheim) instructions. Assay values obtained by vehicle alone were defined as 100%.
# MTT is a substrate for intracellular and plasma membrane oxidoreductases and has been widely used to measure reductions of cell redox activity.
# To test the effect of phanquinone on Aβ(25-35) induced toxicity in PC12 cells, PC12 cells were exposed to Aβ(25-35) peptide concentrations ranging from 0 to 10 μM. In the absence of phanquinone (i.e. only vehicle added) Aβ(25-35) produced a dose-dependent inhibition of MTT reduction (FIG. 1, filled-in circles).
# In this study the same materials and methods as in example 1 were used, except that the PC12 cells were exposed to a fixed Aβ concentration of 1 μM, whereas the concentration of phanquinone was varied between 0 and 10 μg/ml. […] This inhibition was maintained in the presence of up to 0.1 μg phanquinone per ml.
# Aβ(1-40) [2] = target: T1, Aβ(1-40) (Homo sapiens, UniProt P05067); assay: Thioflavin T fluorometric assay of Cu2+-induced Aβ(1-40) aggregation; type: biochemical; details: test compound 10 μg/ml; Aβ(1-40) 100 μM; 24 hours, room temperature
# T1 construct: A 5 mg/ml stock solution of Aβ(1-40) (delivered from Bachem (CH)) was freshly prepared; purchased Bachem (CH)
# Experimental: (§1) A 5 mg/ml stock solution of Aβ(1-40) (delivered from Bachem (CH)) was freshly prepared before each experiment by dissolving the lyophilised peptide in 0.01 M HCl, followed by subsequent dilution 1:1 with 0.01 M NaOH to yield a neutral pH. Aliquot of Aβ(1-40) were diluted in PBS (pH 7.4) to 100 μM and incubated at a total volume of 30 μl for 24 hours at room temperature. For co-incubation experiments, the indicated concentrations of metal ions and/or aliquot of test compounds were added. The test compounds were added to a final […] concentration of 10 μg/ml.
# (§2) The amyloid formation was quantified by a thioflavin T fluorometric assay. Thioflavin binds specifically to amyloid and this introduces a shift in its emission spectrum and a fluorescent signal proportional to the amount of amyloid is formed. After incubation, Aβ(1-40) peptides were added to PBS (pH 6.0) and 3 μM thioflavin T in a final volume of 1 ml. Fluorescence was monitored at excitation 454 nm and emission 482 nm using a Fluoroscan II fluorometer (Molecular devices, UK). A time scan of fluorescence was performed and three values after the decay reached a plateau (around 5 minutes) were averaged after subtracting the background fluorescence of 3 μM thioflavin T. For co-incubation experiments, fluorescence of test compound alone was determined. Samples were run in triplicate. […]
# [3] = Solubility in water / aqueous solutions; type: physicochemical
# Aβ(1-40) [4] = target: T1, Aβ(1-40); assay: Thioflavin T fluorometric assay of Zn2+-induced Aβ(1-40) aggregation; type: biochemical; details: test compound 10 μg/ml; Aβ(1-40) 100 μM; 24 hours, room temperature
# Experimental: as §1, §2
# [5] = 1H NMR study of the interaction of vitamin B12 with clioquinol glucuronide; type: binding; details: 2.6 mM vitamin B12 and 10 mM clioquinol glucuronide, buffered water pH=6.5, 20° C.
# Experimental: Three different solutions were prepared and their 1H NMR spectra were recorded in a DRX 400 MHz spectrophotometer at 20° C. Solution a) contained free vitamin B12 (hydroxycobalamin) in a concentration of 2.6 mM.
# In FIG. 5 the spectra of the three solutions are presented for the aromatic region (5.5-9.8 ppm). The differences are quite small but obvious in the expansion shown of FIG. 6 and FIG. 7, respectively.
# T1 sequence (P05067 672-711): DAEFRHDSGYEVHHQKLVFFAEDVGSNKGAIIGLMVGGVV
compound,measurement,setting,value
CCN(CC)C(=S)SSC(=S)N(CC)CC [Disulfiram],adverse side effects,[1],severe adverse reactions
"Aβ(25-35): peptide sequence between amino acid residues 25 and 35 of Aβ, delivered by Bachem or Sigma (GSNKGAIIGLM; Amyloid-beta protein 42; UniProt P05067 696-706, looked up, fragment)","redox activity of cells, of the normal level",PC12 cells; 1 μM Aβ(25-35),60%
same,inhibition of MTT reduction,"PC12 cells; Aβ(25-35) 1 μM, absence of phanquinone",approximately 40%
same,inhibition of MTT reduction,"PC12 cells; Aβ(25-35) 10 μM, absence of phanquinone",approximately 50%
same,inhibition of MTT reduction,PC12 cells; Aβ(25-35) as low as 0.01 μM,significant reduction
same,MTT reduction reduced to a maximum level,"PC12 cells; Aβ(25-35) on or above 0.1 μM, absence of phanquinone",about 50%
"O=C1C(=O)c2ncccc2-c2cccnc21 [phanquinone, 4,7-phenanthroline-5,6-dione]",reduction of Cu2+-induced aggregation of Aβ(1-40),Aβ(1-40) [2],50-60%
same,adverse side effects,[1],no adverse side effects have been detected
same,redox activity of Aβ(25-35)-treated cells,"PC12 cells; 1 μM Aβ(25-35), 1 μg/ml phanquinone or more",normal redox activity is restored
same,toxic effect of Aβ,"PC12 cells; 10 μg phanquinone per ml, Aβ as high as 1 μM",completely counteracted
same,toxic effect of Aβ(25-35),"PC12 cells; 10 μg phanquinone per ml, Aβ(25-35) 0 to 10 μM",virtually abolished
same,toxic effect of Aβ(25-35),"PC12 cells; Aβ 1 μM, phanquinone 1 μg/ml and above",completely abolished
same,toxic effect of Aβ(25-35),"PC12 cells; Aβ 1 μM, phanquinone above 0.1 μg/ml",drastic reduced toxic effect
same,inhibition of MTT reduction by Aβ(25-35),"PC12 cells; Aβ 1 μM, up to 0.1 μg phanquinone per ml",maintained
"Oc1c(I)cc(Cl)c2cccnc12 [clioquinol, 5-chloro-7-iodo-8-hydroxyquinoline]",solubility in water,[3],cannot be dissolved in aqueous solutions
same,reduction of Zn2+-induced aggregation of Aβ(1-40),Aβ(1-40) [4],more than 60%
same,reduction of Cu2+-induced aggregation of Aβ(1-40),Aβ(1-40) [2],approximately 30%
same,adverse side effects,[1],causes subacute myelo-optico-neuropathy (SMON)
"COC(=O)C1OC(Oc2c(I)cc(Cl)c3cccnc23)C(OC(C)=O)C(OC(C)=O)C1OC(C)=O (centres unmarked) [clioquinol glucuronide, methyl(5-chloro-7-iodo-quinolyl-2′,3′,4′-tri-O-acetyl-glucopyranosid)uronate]",solubility in water,[3],soluble in water
same,interaction with vitamin B12 (shift of 1H NMR resonances),[5],"interaction between clioquinol glucuronide and vitamin B12, possibly of a hydrophobic nature"
